The results in this text go back to paper PMC9870775, “Potent Dual Polymerase/Exonuclease Inhibitory Activities of Antioxidant Aminothiadiazoles Against the COVID-19 Omicron Virus: A Promising In Silico/In Vitro Repositioning Research Study” (Molecular Biotechnology, 2023).

A short description of the series: in vitro. As to conditions: African green monkey.

Some results are limits rather than exact numbers.

With `CC(C)C(=O)OC[C@H]1O[C@@H](n2ccc(NO)nc2=O)[C@H](O)[C@@H]1O` [Molnupiravir, molnupiravir, reference compound], the CC50 is above 100 µM.
`Nc1nnc([C@H](O)[C@@H](O)c2nnc(N)s2)s1` [Taroxaz-26, (1R,2R)-1,2-bis(5-amino-1,3,4-thiadiazol-2-yl)ethane-1,2-diol] displayed a CC50 above 100 µM.
With `Nc1nnc(-c2cnc3cc(Cl)ccc3c2O)s1` [ChloViD2022, 3-(5-amino-1,3,4-thiadiazol-2-yl)-7-chloroquinolin-4-ol], the CC50 was above 100 µM.
In the case of `Nc1nnc(CC(O)(Cc2nnc(N)s2)c2nnc(N)s2)s1` [CoViTris2022, 1,2,3-tris(5-amino-1,3,4-thiadiazol-2-yl)propan-2-ol] it was above 100 µM.
